Assays:
ABL2/ARG = biological target: T1, ABL2/ARG (Homo sapiens, UniProt P42684); assay: HotSpot in vitro kinase radiometric assay; assay type: biochemical
T1 construct: purchased Reaction Biology (HotSpot contract assay)

BLK = biological target: T2, BLK (Homo sapiens, UniProt P51451); assay: HotSpot in vitro kinase radiometric assay; assay type: biochemical
T2 construct: purchased Reaction Biology (HotSpot contract assay)
In short: (§1)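 Off-target screen in a radioisotope catalytic assay: test compounds incubated with each kinase, its substrate, cofactors and 33P- or 32P-labelled ɣ-ATP. Filters retaining labelled product gave the signal.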

LYN B = biological target: T3, LYN B (Homo sapiens, UniProt P07948); assay: HotSpot in vitro kinase radiometric assay; assay type: biochemical
T3 construct: purchased Reaction Biology (HotSpot contract assay)
T3 sequence (P07948 1-491 isoform P07948-2): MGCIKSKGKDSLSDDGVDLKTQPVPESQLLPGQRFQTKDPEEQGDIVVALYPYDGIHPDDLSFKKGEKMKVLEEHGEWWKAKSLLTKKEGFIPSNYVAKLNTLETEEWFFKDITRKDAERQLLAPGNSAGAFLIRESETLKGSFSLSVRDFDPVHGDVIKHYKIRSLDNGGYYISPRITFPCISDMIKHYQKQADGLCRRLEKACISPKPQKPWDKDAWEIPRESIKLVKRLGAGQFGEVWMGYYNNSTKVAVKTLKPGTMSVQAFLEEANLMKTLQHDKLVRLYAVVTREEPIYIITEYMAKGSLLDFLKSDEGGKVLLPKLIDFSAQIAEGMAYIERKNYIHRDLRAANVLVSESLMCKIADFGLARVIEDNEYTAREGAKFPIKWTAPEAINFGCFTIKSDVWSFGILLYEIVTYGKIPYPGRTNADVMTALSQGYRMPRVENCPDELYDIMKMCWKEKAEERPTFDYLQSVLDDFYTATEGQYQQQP
In short: as §1

PDK2/PDHK2 = biological target: T4, PDK2/PDHK2 (Homo sapiens, UniProt Q15119); assay: HotSpot in vitro kinase radiometric assay; assay type: biochemical; conditions: read-out: % inhibition at 10 uM: PDK2
T4 construct: purchased Reaction Biology (HotSpot contract assay)
In short: as §1

PDK4/PDKH4 = biological target: T5, PDK4/PDKH4 (Homo sapiens, UniProt Q16654); assay: HotSpot in vitro kinase radiometric assay; assay type: biochemical
T5 construct: purchased Reaction Biology (HotSpot contract assay)
T5 sequence (Q16654 whole entry): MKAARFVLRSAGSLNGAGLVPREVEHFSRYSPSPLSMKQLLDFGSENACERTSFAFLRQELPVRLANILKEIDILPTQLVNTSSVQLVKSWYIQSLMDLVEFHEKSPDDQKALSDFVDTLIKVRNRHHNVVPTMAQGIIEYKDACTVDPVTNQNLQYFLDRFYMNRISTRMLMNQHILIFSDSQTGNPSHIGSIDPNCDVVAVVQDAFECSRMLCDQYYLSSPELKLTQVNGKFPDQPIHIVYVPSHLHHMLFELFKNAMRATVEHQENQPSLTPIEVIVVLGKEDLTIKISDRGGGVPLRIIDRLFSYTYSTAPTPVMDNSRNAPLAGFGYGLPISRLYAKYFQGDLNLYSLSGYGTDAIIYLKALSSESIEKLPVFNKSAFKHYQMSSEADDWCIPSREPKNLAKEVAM
In short: as §1

c-Src = biological target: T6, c-Src (Homo sapiens, UniProt P12931); assay: HotSpot in vitro kinase radiometric assay; assay type: biochemical
T6 construct: purchased Reaction Biology (HotSpot contract assay)
T6 sequence (P12931 whole entry): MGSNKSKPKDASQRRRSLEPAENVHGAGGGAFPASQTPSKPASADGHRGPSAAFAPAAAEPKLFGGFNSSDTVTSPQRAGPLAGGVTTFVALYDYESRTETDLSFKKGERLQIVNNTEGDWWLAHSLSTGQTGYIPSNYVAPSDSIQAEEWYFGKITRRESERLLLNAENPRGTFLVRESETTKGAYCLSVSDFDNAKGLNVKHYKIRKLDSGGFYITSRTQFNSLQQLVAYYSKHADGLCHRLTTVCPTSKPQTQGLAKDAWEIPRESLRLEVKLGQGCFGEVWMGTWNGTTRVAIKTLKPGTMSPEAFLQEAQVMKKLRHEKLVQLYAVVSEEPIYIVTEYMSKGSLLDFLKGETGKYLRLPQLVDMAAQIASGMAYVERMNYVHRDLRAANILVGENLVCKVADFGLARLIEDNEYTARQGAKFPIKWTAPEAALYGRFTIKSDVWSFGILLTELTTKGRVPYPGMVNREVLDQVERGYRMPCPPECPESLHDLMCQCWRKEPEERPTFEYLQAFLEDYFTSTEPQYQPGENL
In short: as §1

PEAK1 = biological target: T7, PEAK1 (Homo sapiens, UniProt Q9H792); assay: HotSpot in vitro kinase radiometric assay; assay type: biochemical
T7 construct: purchased Reaction Biology (HotSpot contract assay)

FGR = biological target: T8, FGR (Homo sapiens, UniProt P09769); assay: HotSpot in vitro kinase radiometric assay; assay type: biochemical
T8 construct: purchased Reaction Biology (HotSpot contract assay)

FYN = biological target: T9, FYN (Homo sapiens, UniProt P06241); assay: HotSpot in vitro kinase radiometric assay; assay type: biochemical
T9 construct: purchased Reaction Biology (HotSpot contract assay)

PASK = biological target: T10, PASK (Homo sapiens, UniProt Q96RG2); assay: HotSpot in vitro kinase radiometric assay; assay type: biochemical
T10 construct: purchased Reaction Biology (HotSpot contract assay)
Source text: (§2) Accordingly, we selected five additional representative HSP90 inhibitors, at least one from each chemical class, including both synthetic inhibitors and natural products.
(§3) Accordingly, we screened the hit compound and the two leads for kinase off-target inhibition using the 16-kinase panel and the same in vitro catalytic assay used previously.
(§4) This radioisotope binding assay was designed to directly detect the true product without the use of modified substrates, coupling enzymes, or detection antibodies thus enabling to directly measure inhibition of catalytic activity. Test or control compounds were incubated with kinase, substrate, cofactors, and radioisotope-labeled ATP (32P-ɣ-ATP or 33P-ɣ-ATP). The reaction mixtures were then spotted onto filter papers, which bind the radioisotope-labeled catalytic product.

TRKA = biological target: T11, TRKA (Homo sapiens, UniProt P04629); assay: HotSpot in vitro kinase radiometric assay; assay type: biochemical
T11 construct: purchased Reaction Biology (HotSpot contract assay)
T11 sequence (P04629 33-796): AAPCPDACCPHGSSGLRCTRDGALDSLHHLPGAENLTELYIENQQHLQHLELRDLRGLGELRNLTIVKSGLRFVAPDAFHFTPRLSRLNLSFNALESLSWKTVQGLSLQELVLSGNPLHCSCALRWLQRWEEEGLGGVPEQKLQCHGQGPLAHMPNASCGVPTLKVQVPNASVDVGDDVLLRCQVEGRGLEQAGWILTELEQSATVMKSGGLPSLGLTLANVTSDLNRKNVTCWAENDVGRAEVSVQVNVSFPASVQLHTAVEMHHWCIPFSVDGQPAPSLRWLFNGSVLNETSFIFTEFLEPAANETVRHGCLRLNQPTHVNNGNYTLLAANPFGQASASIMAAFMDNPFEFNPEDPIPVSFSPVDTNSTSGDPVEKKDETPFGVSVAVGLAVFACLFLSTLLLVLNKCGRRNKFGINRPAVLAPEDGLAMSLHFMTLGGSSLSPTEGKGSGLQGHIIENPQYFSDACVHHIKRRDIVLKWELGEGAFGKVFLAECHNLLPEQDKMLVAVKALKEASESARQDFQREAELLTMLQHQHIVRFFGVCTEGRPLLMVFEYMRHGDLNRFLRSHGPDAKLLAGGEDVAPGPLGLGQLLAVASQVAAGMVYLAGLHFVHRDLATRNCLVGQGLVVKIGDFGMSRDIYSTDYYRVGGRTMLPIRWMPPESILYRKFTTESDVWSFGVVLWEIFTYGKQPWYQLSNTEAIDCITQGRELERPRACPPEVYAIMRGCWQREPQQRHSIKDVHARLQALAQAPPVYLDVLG
Source text: as §2, §3, §4

TRKC = biological target: T12, TRKC (Homo sapiens, UniProt Q16288); assay: HotSpot in vitro kinase radiometric assay; assay type: biochemical
T12 construct: purchased Reaction Biology (HotSpot contract assay)
T12 sequence (Q16288 32-839): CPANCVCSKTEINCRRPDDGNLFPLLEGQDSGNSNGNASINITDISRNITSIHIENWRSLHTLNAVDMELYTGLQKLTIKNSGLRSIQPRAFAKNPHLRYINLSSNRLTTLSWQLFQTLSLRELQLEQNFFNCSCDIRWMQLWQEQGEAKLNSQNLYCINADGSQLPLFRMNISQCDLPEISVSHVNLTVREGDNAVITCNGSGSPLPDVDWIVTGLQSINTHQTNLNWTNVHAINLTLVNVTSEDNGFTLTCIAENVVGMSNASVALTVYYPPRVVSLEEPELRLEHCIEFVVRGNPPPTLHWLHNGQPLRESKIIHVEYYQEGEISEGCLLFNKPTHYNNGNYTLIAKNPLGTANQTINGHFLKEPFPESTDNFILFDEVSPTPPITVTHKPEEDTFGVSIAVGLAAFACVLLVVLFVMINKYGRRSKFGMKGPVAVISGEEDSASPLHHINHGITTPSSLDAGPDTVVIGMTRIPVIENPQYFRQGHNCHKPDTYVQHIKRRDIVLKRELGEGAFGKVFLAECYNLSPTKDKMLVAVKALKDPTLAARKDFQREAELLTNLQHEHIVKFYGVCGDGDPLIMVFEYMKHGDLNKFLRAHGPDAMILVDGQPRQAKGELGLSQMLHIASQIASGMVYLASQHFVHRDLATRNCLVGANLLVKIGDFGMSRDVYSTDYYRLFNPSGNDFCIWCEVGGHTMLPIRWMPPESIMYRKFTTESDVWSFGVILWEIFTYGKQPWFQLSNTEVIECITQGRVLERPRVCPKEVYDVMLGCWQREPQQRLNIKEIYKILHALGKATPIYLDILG

LCK = biological target: T13, LCK (Homo sapiens, UniProt P06239); assay: HotSpot in vitro kinase radiometric assay; assay type: biochemical
T13 construct: purchased Reaction Biology (HotSpot contract assay)
T13 sequence (P06239 whole entry): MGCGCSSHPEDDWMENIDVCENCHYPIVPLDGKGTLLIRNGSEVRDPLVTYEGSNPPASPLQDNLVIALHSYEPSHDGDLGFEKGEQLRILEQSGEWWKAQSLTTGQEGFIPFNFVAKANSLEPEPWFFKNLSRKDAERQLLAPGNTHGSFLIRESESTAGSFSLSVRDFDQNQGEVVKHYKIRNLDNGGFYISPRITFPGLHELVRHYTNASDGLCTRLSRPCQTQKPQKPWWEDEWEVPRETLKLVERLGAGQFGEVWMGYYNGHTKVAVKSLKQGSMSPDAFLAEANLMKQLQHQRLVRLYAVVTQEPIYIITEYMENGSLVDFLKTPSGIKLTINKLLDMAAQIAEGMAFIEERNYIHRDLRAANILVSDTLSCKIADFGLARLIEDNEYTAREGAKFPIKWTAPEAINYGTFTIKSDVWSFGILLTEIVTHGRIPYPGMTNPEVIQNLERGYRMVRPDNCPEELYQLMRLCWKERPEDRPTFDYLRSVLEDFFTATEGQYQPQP

YES/YES1 = biological target: T14, YES/YES1 (Homo sapiens, UniProt P07947); assay: HotSpot in vitro kinase radiometric assay; assay type: biochemical
T14 construct: purchased Reaction Biology (HotSpot contract assay)
T14 sequence (P07947 whole entry): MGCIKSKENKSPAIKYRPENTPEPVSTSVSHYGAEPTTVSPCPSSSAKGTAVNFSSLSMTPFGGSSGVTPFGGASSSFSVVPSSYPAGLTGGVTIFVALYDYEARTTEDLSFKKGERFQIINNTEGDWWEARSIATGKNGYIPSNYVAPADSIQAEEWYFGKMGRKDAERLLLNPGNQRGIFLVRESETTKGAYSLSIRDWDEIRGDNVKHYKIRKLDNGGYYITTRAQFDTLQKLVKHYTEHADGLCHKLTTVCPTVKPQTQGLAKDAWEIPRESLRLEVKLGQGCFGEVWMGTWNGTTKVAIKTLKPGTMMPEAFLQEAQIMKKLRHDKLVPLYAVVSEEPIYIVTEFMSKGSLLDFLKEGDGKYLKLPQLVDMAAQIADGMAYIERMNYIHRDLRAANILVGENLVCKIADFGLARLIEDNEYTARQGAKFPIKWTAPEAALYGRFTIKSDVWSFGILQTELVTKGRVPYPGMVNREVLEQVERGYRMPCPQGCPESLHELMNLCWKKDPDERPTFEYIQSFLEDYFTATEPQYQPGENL

HSP90AB1 = system: HSP90AB1; set-up: method as in ChEMBL23 (accessed: 23/08/2018); conditions: average of reported values; ref ChEMBL23 (accessed: 23/08/2018); cited from earlier work
PIM1 = system: PIM1; set-up: method as in ChEMBL23 (accessed: 23/08/2018); conditions: average of reported values; ref ChEMBL23 (accessed: 23/08/2018); cited from earlier work
CDK2 = system: CDK2; set-up: method as in ChEMBL23 (accessed: 23/08/2018); conditions: average of reported values; ref ChEMBL23 (accessed: 23/08/2018); cited from earlier work
PRKD2 = system: PRKD2; set-up: method as in ChEMBL23 (accessed: 23/08/2018); conditions: average of reported values; ref ChEMBL23 (accessed: 23/08/2018); cited from earlier work
PRKD3 = system: PRKD3; set-up: method as in ChEMBL23 (accessed: 23/08/2018); conditions: average of reported values; ref ChEMBL23 (accessed: 23/08/2018); cited from earlier work
CSF1R = system: CSF1R; set-up: method as in ChEMBL23 (accessed: 23/08/2018); conditions: average of reported values; ref ChEMBL23 (accessed: 23/08/2018); cited from earlier work
RPS6KA3 = system: RPS6KA3; set-up: method as in ChEMBL23 (accessed: 23/08/2018); conditions: average of reported values; ref ChEMBL23 (accessed: 23/08/2018); cited from earlier work
ROCK1 = system: ROCK1; set-up: method as in ChEMBL23 (accessed: 23/08/2018); conditions: average of reported values; ref ChEMBL23 (accessed: 23/08/2018); cited from earlier work
ROCK2 = system: ROCK2; set-up: method as in ChEMBL23 (accessed: 23/08/2018); conditions: average of reported values; ref ChEMBL23 (accessed: 23/08/2018); cited from earlier work
ABL1 [1] = biological target: ABL1 (Homo sapiens, UniProt P00519); assay: HotSpot in vitro kinase radiometric assay; assay type: biochemical; set-up: purchased Reaction Biology (HotSpot contract assay)
DDR1 [2] = biological target: DDR1 (Homo sapiens, UniProt Q08345); assay: HotSpot in vitro kinase radiometric assay; assay type: biochemical; set-up: purchased Reaction Biology (HotSpot contract assay)
ABL1 [3] = biological target: ABL1; set-up: method as in Becher et al., 2013; conditions: chemoproteomics; ref Becher et al., 2013; read-out: Kd,app (ATP-Mg), ABL1; cited from earlier work
ABL2 = biological target: ABL2; set-up: method as in Becher et al., 2013; conditions: chemoproteomics; ref Becher et al., 2013; read-out: Kd,app (ATP-Mg), ABL2; cited from earlier work
DDR1 [4] = biological target: DDR1; set-up: method as in Becher et al., 2013; conditions: chemoproteomics; ref Becher et al., 2013; read-out: Kd,app (ATP-Mg), DDR1; cited from earlier work

T2 sequence (P51451 whole entry): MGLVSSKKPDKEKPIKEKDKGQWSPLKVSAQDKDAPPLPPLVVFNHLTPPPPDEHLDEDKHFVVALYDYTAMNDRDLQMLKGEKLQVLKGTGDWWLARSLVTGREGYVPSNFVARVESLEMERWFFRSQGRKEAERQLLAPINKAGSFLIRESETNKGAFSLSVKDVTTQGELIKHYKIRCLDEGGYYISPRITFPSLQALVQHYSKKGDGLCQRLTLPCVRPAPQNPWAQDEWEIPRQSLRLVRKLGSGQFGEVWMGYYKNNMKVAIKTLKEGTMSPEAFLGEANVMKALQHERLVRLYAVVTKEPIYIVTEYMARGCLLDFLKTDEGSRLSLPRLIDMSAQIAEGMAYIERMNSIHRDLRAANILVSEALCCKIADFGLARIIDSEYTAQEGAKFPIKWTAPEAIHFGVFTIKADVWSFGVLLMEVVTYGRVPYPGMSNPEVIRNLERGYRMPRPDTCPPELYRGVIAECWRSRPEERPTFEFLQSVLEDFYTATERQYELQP

Compound `CCNC(=O)c1n[nH]c(-c2cc(Cl)c(O)cc2O)c1-c1ccc(OC)cc1` [VER-49009] has a remaining activity at 10 µM (ABL2/ARG; read-out: % Enzyme Activity (relative to DMSO controls), ABL2/ARG, 10uM, ATP 30 uM, Data 1, Data 2) of 101%, an inhibition at 10 µM (ABL2/ARG; read-out: % inhibition at 10 uM: ABL2) of 1 ± 3% and a remaining activity at 10 µM (BLK; read-out: % Enzyme Activity (relative to DMSO controls), BLK, 10uM, ATP 10 uM, Data 1, Data 2) of 70.1%. It also gave an inhibition at 10 µM (BLK; read-out: % inhibition at 10 uM: BLK) of 24 ± 8%, a remaining activity at 10 µM (LYN B; read-out: % Enzyme Activity (relative to DMSO controls), LYN B, 10uM, ATP 20 uM, Data 1, Data 2) of 108% and an inhibition at 10 µM (LYN B; read-out: % inhibition at 10 uM: LYN B) of -6 ± 3%. The inhibition at 10 µM (PDK2/PDHK2) was 95 ± 5%, the remaining activity at 10 µM (PDK4/PDKH4; read-out: % Enzyme Activity (relative to DMSO controls), PDK4/PDKH4, 10uM, ATP 30 uM, Data 1, Data 2) was 15.1% and the inhibition at 10 µM (PDK4/PDKH4; read-out: % inhibition at 10 uM: PDK4) was 86 ± 1%. For the same compound, the remaining activity at 10 µM (c-Src; read-out: % Enzyme Activity (relative to DMSO controls), c-Src, 10uM, ATP 15 uM, Data 1, Data 2) was 65.9%, the inhibition at 10 µM (c-Src; read-out: % inhibition at 10 uM: SRC) was 35 ± 1% and the remaining activity at 10 µM (PEAK1; read-out: % Enzyme Activity (relative to DMSO controls), PEAK1, 10uM, ATP 30 uM, Data 1, Data 2) was 75.5%. The inhibition at 10 µM (PEAK1; read-out: % inhibition at 10 uM: PEAK1) was 24%, the remaining activity at 10 µM (FGR; read-out: % Enzyme Activity (relative to DMSO controls), FGR, 10uM, ATP 50 uM, Data 1, Data 2) was 99% and the inhibition at 10 µM (FGR; read-out: % inhibition at 10 uM: FGR) was 1%. For the same compound, the remaining activity at 10 µM (FYN; read-out: % Enzyme Activity (relative to DMSO controls), FYN, 10uM, ATP 30 uM, Data 1, Data 2) was 89.2%, the inhibition at 10 µM (FYN; read-out: % inhibition at 10 uM: FYN) was 13 ± 3% and the remaining activity at 10 µM (PASK; read-out: % Enzyme Activity (relative to DMSO controls), PASK, 10uM, ATP 50 uM, Data 1, Data 2) was 98%. The inhibition at 10 µM (PASK; read-out: % inhibition at 10 uM: PASK) was 2%, the remaining activity at 10 µM (TRKA; read-out: % Enzyme Activity (relative to DMSO controls), TRKA, 10uM, ATP 100 uM, Data 1, Data 2) was 20.6% and the inhibition at 10 µM (TRKA; read-out: % inhibition at 10 uM: TRKA) was 79 ± 1%. For the same compound, the remaining activity at 10 µM (TRKC; read-out: % Enzyme Activity (relative to DMSO controls), TRKC, 10uM, ATP 100 uM, Data 1, Data 2) was 68.4%, the inhibition at 10 µM (TRKC; read-out: % inhibition at 10 uM: TRKC) was 28 ± 5% and the remaining activity at 10 µM (LCK; read-out: % Enzyme Activity (relative to DMSO controls), LCK, 10uM, ATP 15 uM, Data 1, Data 2) was 72.8%. The inhibition at 10 µM (LCK; read-out: % inhibition at 10 uM: LCK) was 25 ± 3%, the remaining activity at 10 µM (YES/YES1; read-out: % Enzyme Activity (relative to DMSO controls), YES/YES1, 10uM, ATP 50 uM, Data 1, Data 2) was 77.2% and the inhibition at 10 µM (YES/YES1; read-out: % inhibition at 10 uM: YES) was 24 ± 1%. The “pActivity, HSP90AB1” value (HSP90AB1) was 7.6, the “pActivity, PIM1” value (PIM1) was 5.6 and the “pActivity, CDK2” value (CDK2) was 5.2. For the same compound, the “pActivity, PRKD2” value (PRKD2) was 5.8, the “pActivity, PRKD3” value (PRKD3) was 5.8 and the “pActivity, CSF1R” value (CSF1R) was 5.9. For the same compound, the “pActivity, RPS6KA3” value (RPS6KA3) was 5.5, the “pActivity, ROCK1” value (ROCK1) was 5.4 and the “pActivity, ROCK2” value (ROCK2) was 5.6. The remaining activity at 10 µM (ABL1 [1]; read-out: % Enzyme Activity (relative to DMSO controls), ABL1, 10uM, ATP 40 uM, Data 1, Data 2) was 80.2%, the inhibition at 10 µM (ABL1 [1]; read-out: % inhibition at 10 uM: ABL1) was 14 ± 8% and the remaining activity at 10 µM (DDR1 [2]; read-out: % Enzyme Activity (relative to DMSO controls), DDR1, 10uM, ATP 100 uM, Data 1, Data 2) was 65.8%. It also gave an inhibition at 10 µM (DDR1 [2]; read-out: % inhibition at 10 uM: DDR1) of 29 ± 8%.
In the case of `Nc1ncnc2c1ncn2[C@@H]1O[C@H](COP(=O)(O)OP(=O)(O)OP(=O)(O)O)[C@@H](O)[C@H]1O` [ATP-Mg], the Kd (ABL1 [3]) is given as 37 to 99 µM, the Kd (ABL2) is given as 423 µM and the Kd (DDR1 [4]) is given as > 1000 µM.
